Reference: US5654008A, “Preparation of biodegradable microparticles containing a biologically active agent” (Alkermes Controlled Therapeutics Inc. II, priority 1996, dated 1997)

For `C#C[C@]1(O)CC[C@H]2[C@@H]3CCC4=CC(=O)CC[C@@H]4[C@H]3CC[C@@]21C` [NET, norethindrone], the “NET release rate, effect of quench volume” value (0.25 to 1.5 L quench liquid per gram, possible minimum at 1 L) was “varies slightly with a possible minimum” and the “in vitro release, effect of ethyl acetate content of quench liquid” value (at extreme ethyl acetate contents) was “quicker release”.
